Test results: PubChem BioAssay AID330 (DTP/NCI, 2004)
Where “and” joins values, the source holds several entries; their conditions need not be identical. Equal entries are not always repeated. Inconclusive results and toxic doses are left out. The calls were made as follows: active = survival T/C of 150% or more; inactive = T/C below 125% in these data.

Tested on: P388 leukemia ip, CD2F1 mice, survival T/C
Assay: NCI In Vivo Anticancer Drug Screen. Data for tumor model P388 Leukemia (intraperitoneal) in CD2F1 (CDF1) mice
Conditions: endpoint: median survival time, higher = longer survival
In short: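 Mice carrying the transplanted tumor received test compound or vehicle. Survival was recorded in each group, and the value is the treated-group measurement divided by that of the vehicle-treated control group.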

[1] = dose: 50.0 mg/kg/injection, schedule: Q01DX009 (ip), vehicle: saline
[2] = dose: 100.0 mg/kg/injection, schedule: Q01DX009 (ip), vehicle: saline
[3] = dose: 200.0 mg/kg/injection, schedule: Q01DX009 (ip), vehicle: saline
[4] = dose: 50.0 mg/kg/injection, schedule: Q01DX005 (ip), vehicle: saline with Tween-80
[5] = dose: 100.0 mg/kg/injection, schedule: Q01DX005 (ip), vehicle: saline with Tween-80
[6] = dose: 200.0 mg/kg/injection, schedule: Q01DX005 (ip), vehicle: saline with Tween-80

Measured: T/C

C[P+]12CN3CN(CN(C3)C1)C2
inactive: [1] 107 % of control | [2] 107 % of control | [3] 101 % of control

C=CCn1c(NCCN(CC)CC)nc2ccc(Cl)cc2c1=O
inactive: dose: 12.5 mg/kg/injection, schedule: Q01DX009 (ip), vehicle: saline sonified 100 % of control | dose: 25.0 mg/kg/injection, schedule: Q01DX009 (ip), vehicle: saline sonified 104 % of control | dose: 50.0 mg/kg/injection, schedule: Q01DX009 (ip), vehicle: saline sonified 104 % of control

CC(C)=CCc1c(C)cc2cc3c(c(O)c2c1O)C(O)=CC(=O)C3(CC=C(C)C)CC=C(CO)CO (stereo unspecified)
inactive: dose: 25.0 mg/kg/injection, schedule: Q01DX005 (ip), vehicle: Klucel (hydroxypropylcellulose) (HPC) 97 % of control | dose: 50.0 mg/kg/injection, schedule: Q01DX005 (ip), vehicle: Klucel (hydroxypropylcellulose) (HPC) 93 % of control | dose: 100.0 mg/kg/injection, schedule: Q01DX005 (ip), vehicle: Klucel (hydroxypropylcellulose) (HPC) 94 % of control

COc1ccc(Cc2cc3c(cc2OC(C)=O)OCO3)cc1
inactive: [4] 100 % of control | [5] 100 % of control | [6] 99 % of control

COc1cc2c(c(OC)c1OC)-c1ccc(NCc3ccccc3)c(=O)cc1[C@@H](NC(C)=O)CC2
inactive: dose: 0.78 mg/kg/injection, schedule: Q01DX009 (ip), vehicle: Klucel (hydroxypropylcellulose) (HPC) 103 % of control and 104 % of control and 105 % of control | dose: 1.56 mg/kg/injection, schedule: Q01DX009 (ip), vehicle: Klucel (hydroxypropylcellulose) (HPC) 98 % of control and 101 % of control and 104 % of control | dose: 3.12 mg/kg/injection, schedule: Q01DX009 (ip), vehicle: Klucel (hydroxypropylcellulose) (HPC) 105 % of control and 106 % of control and 117 % of control | dose: 6.25 mg/kg/injection, schedule: Q01DX009 (ip), vehicle: Klucel (hydroxypropylcellulose) (HPC) 117 % of control | dose: 12.5 mg/kg/injection, schedule: Q01DX009 (ip), vehicle: Klucel (hydroxypropylcellulose) (HPC) 98 % of control and 117 % of control

O=C(O)C1CCC[N-]1.[Cl][Pd][Cl] (stereo unspecified)
inactive: dose: 6.25 mg/kg/injection, schedule: Q01DX009 (ip), vehicle: water 105 % of control | dose: 12.5 mg/kg/injection, schedule: Q01DX009 (ip), vehicle: water 96 % of control | dose: 25.0 mg/kg/injection, schedule: Q01DX009 (ip), vehicle: water 100 % of control | dose: 50.0 mg/kg/injection, schedule: Q01DX009 (ip), vehicle: water 114 % of control | dose: 100.0 mg/kg/injection, schedule: Q01DX009 (ip), vehicle: water 93 % of control

CC(=O)O.[In]
inactive: dose: 0.1 mg/mouse/injection, schedule: Q01DX020 (oral), vehicle: saline with Tween-80 100 % of control

Cc1ccc(S(=O)(=O)N/N=C/c2ccsc2)cc1
inactive: dose: 100.0 mg/kg/injection, schedule: Q04DX003 (ip), vehicle: Klucel (hydroxypropylcellulose) (HPC) 92 % of control | dose: 200.0 mg/kg/injection, schedule: Q04DX003 (ip), vehicle: Klucel (hydroxypropylcellulose) (HPC) 106 % of control | dose: 400.0 mg/kg/injection, schedule: Q04DX003 (ip), vehicle: Klucel (hydroxypropylcellulose) (HPC) 100 % of control

CC(=O)c1ccc(-n2c(=O)n(-c3ccccc3)c3nc4cc(C)ccc4nc32)cc1
inactive: [4] 90 % of control | [5] 92 % of control | [6] 98 % of control

N#CCCN(C(=O)Nc1ccc(Cl)c(Cl)c1)C1CCCCC1
inactive: dose: 12.5 mg/kg/injection, schedule: Q01DX009 (ip), vehicle: saline with Tween-80 98 % of control | dose: 25.0 mg/kg/injection, schedule: Q01DX009 (ip), vehicle: saline with Tween-80 101 % of control and 104 % of control | dose: 50.0 mg/kg/injection, schedule: Q01DX009 (ip), vehicle: saline with Tween-80 100 % of control and 103 % of control | dose: 100.0 mg/kg/injection, schedule: Q01DX009 (ip), vehicle: saline with Tween-80 91 % of control and 97 % of control

O=C(O)c1c[nH]c2cc(OCCc3ccccc3)ccc2c1=O
inactive: [1] 101 % of control | [2] 107 % of control | [3] 107 % of control
